{"source": "patent US20110183942A1", "about": "“Methods and Compositions for Treating Alzheimer's Disease” (UNIVERSITY OF MEDICINE AND DENTISTRY OF NEW JERSEY, priority 2008, published 2011)", "tested_on": "Arc protein in DIV14 forebrain neurons", "experiment": "Western blot of Arc protein in cultured forebrain neurons", "format": "cell-based, mouse", "experimental": "For biochemistry experiments, 0.4×10^6 neurons were added to each well of a 6-well plate (Coming) coated with poly-L-lysine. Growth medium consisted of NeuroBasal (Invitrogen) supplemented with 1% fetal bovine serum (Hyclone), 2% B27, 1% Glutamax (Invitrogen), 100 U/mL penicillin, and 100 U/mL streptomycin (Invitrogen). Neurons were fed twice per week with glia conditioned growth medium.\nTransfected HEK293T cells or cultured neurons were treated with various drugs and then harvested in IP buffer supplemented with 1% Triton X-100 buffer and Complete™ EDTA-Free protease inhibitors. Soluble fractions were diluted with 4× SDS sample buffer.\nThe membrane was blocked with TBST (50 mM Tris, pH 7.5, with 150 mM NaCl, and 0.1% Tween-20) containing 5% non-fat milk for one hour at room temperature, followed by incubation with primary antibody in TBST buffer overnight at 4° C. After three washes with TBST buffer, membranes were incubated with HRP-conjugated anti-rabbit, or anti-mouse antibody in TBST for another hour. After three washes with TBST buffer, the membrane was treated with SuperSignal ECL substrate (Pierce) according to the manufacturer's protocol.\nTo reduce the background signal in the co-IP assay, HRP-conjugated HA or HPR conjugated myc antibody (Santa Cruz) was used when overexpressed proteins were tagged with HA or myc. […] Image J software (NIH) was used for quantification.", "note": "Entries after “also recorded” stand apart in the source; their conditions may differ.", "data": [{"molecule": "NC(C(=O)O)c1cc(O)cc(O)c1", "note": "(racemic) [DHPG, (R,S)-3,5-DHPG]", "values": [{"measurement": "rapid increase of Arc protein following DHPG stimulation", "setting": "Fmr1 KO neurons", "result": "absent"}, {"measurement": "level of Arc protein after DHPG", "setting": "WT neurons, DHPG 50 μM, 5 min", "result": "significantly increased the level of Arc; also recorded: induced"}, {"measurement": "increase in Arc protein 5 min after DHPG", "setting": "eEF2K KO neurons", "result": "absent"}]}]}
